Results as given in US12202829B2, “Heterocyclic compound” (FIMECS, Inc., priority 2018, dated 2025).
pIC50: −log10 of the molar value. Counter-ions that a name gives are not always drawn.

Legend:
[1] = biological target: T1, human XIAP_BIR3 domain purified protein (Homo sapiens, UniProt P98170); experiment: XIAP binding inhibitory activity, HTRF method with b-Smac ligand; conditions: for pIC50: second symbol of the cell, read-out: XIAP binding 50% inhibitory concentration (IC50 value); for inhibition at 3 µM: test compound 3 μM, first symbol of the cell, read-out: XIAP binding inhibition rate when the concentration of the test compound is 3 μM
T1 construct: purchased R & D
How it was run: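 HTRF competition: human XIAP BIR3 and C-terminally biotinylated Smac peptide AVPIAQK, each diluted to 90 nM before addition, in HEPES pH 7.5 buffer with NaCl, BSA, Triton X-100. Eu-cryptate anti-His/streptavidin-XL665 detection after ≥4 h at room temperature; inhibition % from 665/615 ratio versus no-compound control.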

BCR-ABL = biological target: T2, BCR-ABL (Homo sapiens, UniProt P00519); experiment: In vitro degradation activity of BCR-ABL in K562 cells, western blotting; assay type: cell-based; conditions: test compound 30 μM, 24 hours, relative to DMSO control set at 100
T2 construct: BCR N-terminal part (natural fusion partner, P11274); endogenous in cells; host or cells: K562 (ECACC); the other entry of the earlier key: BCR (P11274, Breakpoint cluster region protein)
Procedure: In vitro degradation activities of BCR-ABL of the example compounds were evaluated by the following method. K562 cells were purchased from ECACC and cultured in RPMI-1640 supplemented with 10% FBS and 1% penicillin/streptomycin. K562 cells were seeded at a density of 1×10^6 cells/well in 24-well plate and treated with DMSO control or Example 80 and 81 (1, 3, 10, 30 μM), and then incubated for 24 hours. The cells were collected and lysed on ice for 30 minutes in lysis buffer (0.5% Triton X-100, 0.01 M Tris-HCl (pH 8.0), 0.15 M NaCl) containing a protease inhibitor cocktail (Sigma-Aldrich). The lysates were vortexed for 2 minutes and centrifuged for 15 minutes at 15 krpm at 4° C. Protein concentrations were determined by the BCA assay (Thermo Fisher). Proteins were separated with Nu-PAGE (Thermo Fisher) and analyzed by western blotting (standard protocol) using antibodies of anti-BCR (Cell Signaling #3902), and R-actin (Sigma #A2066). Bands (luminescent intensities) were quantified using LAS-4000 luminescent image analyzer (Fuji). The values of BCR-ABL were corrected by the internal control value of R-actin and analyzed relative to DMSO control set at 100. The remaining protein rate (%) are described as A≤25%, 25%<B≤50%, 50%<C≤75%, D>75% when the concentration of the test compound is 30 μM.

XIAP = biological target: T3, XIAP (Homo sapiens, UniProt P98170); experiment: In vitro degradation activity of XIAP in THP1 cells, western blotting; assay type: cell-based; conditions: test compound 10 μM, 24 hours, relative to DMSO control set at 100
T3 construct: endogenous in cells; host or cells: THP1 (ATCC)
Procedure: In vitro degradation activities of XIAP of the example compounds were evaluated by the following method. THP1 cells were purchased from ATCC and cultured in RPMI-1640 supplemented with 10% FBS and 1% penicillin/streptomycin. THP1 cells were seeded at a density of 1×10^6 cells/well in 24-well plate and treated with DMSO control or Example 86 and 87 (0.001, 0.01, 0.1, 1, 10 μM), and then incubated for 24 hours. The cells were collected and lysed on ice for 30 minutes in lysis buffer (0.5% Triton X-100, 0.01 M Tris-HCl (pH 8.0), 0.15 M NaCl) containing a protease inhibitor cocktail (Sigma-Aldrich). The lysates were sonicated for 30 sec ON/30 sec OFF for ten cycles and centrifuged for 15 minutes at 15 krpm at 4° C. Protein concentrations were determined by the BCA assay (Thermo Fisher). Proteins were separated with Nu-PAGE (Thermo Fisher) and analyzed by western blotting (standard protocol) using antibodies of anti-XIAP (Cell Signaling #14334), and β-actin (Sigma #A2066). Bands (luminescent intensities) were quantified using LAS-4000 luminescent image analyzer (Fuji). The values of XIAP were corrected by the internal control value of β-actin and analyzed relative to DMSO control set at 100. The remaining protein rate (%) are described as A≤25%, 25%<B≤50%, 50%<C≤75%, D>75% when the concentration of the test compound is 10 μM.

T1 sequence (P98170 252-356 limits assumed): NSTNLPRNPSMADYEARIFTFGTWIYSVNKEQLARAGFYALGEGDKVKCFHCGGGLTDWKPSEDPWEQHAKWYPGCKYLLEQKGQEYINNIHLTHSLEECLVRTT
T2 sequence (P00519 with tags, fused parts or gaps): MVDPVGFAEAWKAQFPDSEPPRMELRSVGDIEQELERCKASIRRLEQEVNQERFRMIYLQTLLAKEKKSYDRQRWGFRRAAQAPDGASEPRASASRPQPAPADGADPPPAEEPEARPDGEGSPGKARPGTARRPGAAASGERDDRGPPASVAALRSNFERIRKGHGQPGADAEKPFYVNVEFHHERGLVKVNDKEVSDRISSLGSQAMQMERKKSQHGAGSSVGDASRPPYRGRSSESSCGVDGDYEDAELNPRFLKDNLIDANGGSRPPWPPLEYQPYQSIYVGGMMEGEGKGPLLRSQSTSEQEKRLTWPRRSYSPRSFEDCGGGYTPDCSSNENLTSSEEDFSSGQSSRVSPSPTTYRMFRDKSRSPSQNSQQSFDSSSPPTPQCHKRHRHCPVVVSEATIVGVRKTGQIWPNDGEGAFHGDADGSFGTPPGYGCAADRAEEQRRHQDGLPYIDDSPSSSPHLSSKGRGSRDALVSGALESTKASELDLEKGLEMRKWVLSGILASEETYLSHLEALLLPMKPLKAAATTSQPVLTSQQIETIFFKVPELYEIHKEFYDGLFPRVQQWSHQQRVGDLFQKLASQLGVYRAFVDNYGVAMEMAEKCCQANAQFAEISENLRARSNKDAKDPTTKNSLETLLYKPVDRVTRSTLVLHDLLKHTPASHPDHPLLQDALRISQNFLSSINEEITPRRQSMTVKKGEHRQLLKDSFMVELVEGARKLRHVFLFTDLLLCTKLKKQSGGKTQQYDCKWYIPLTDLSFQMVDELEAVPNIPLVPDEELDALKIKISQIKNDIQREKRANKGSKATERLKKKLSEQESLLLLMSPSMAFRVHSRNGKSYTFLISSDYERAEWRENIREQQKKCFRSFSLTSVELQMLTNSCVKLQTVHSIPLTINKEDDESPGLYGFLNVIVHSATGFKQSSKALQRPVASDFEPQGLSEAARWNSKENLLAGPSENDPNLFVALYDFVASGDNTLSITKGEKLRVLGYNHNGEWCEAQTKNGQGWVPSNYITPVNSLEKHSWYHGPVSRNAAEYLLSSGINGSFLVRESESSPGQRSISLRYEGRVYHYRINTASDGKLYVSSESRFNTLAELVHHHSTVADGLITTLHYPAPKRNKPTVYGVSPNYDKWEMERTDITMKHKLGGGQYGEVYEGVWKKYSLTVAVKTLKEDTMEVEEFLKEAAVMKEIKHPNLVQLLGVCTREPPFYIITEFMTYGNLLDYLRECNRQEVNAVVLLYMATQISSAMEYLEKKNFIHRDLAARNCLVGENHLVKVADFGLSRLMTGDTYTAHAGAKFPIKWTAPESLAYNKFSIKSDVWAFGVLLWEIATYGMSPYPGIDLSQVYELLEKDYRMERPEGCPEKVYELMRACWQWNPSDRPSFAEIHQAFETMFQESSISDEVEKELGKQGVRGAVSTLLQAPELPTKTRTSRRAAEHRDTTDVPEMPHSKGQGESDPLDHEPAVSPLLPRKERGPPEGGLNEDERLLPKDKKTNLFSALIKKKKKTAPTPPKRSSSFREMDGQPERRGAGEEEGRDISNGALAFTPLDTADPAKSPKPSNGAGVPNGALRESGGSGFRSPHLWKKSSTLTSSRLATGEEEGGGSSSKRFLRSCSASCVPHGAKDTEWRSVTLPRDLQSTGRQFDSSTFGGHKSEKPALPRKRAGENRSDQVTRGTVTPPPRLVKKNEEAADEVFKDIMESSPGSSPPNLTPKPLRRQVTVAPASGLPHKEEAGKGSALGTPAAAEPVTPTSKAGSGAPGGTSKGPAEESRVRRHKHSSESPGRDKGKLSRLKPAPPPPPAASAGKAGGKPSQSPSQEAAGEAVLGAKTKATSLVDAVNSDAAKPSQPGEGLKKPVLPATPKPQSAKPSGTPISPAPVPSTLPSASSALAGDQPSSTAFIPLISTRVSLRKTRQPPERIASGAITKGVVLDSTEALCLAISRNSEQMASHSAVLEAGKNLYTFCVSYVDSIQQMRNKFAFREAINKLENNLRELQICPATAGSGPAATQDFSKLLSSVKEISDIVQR
T3 sequence (P98170 whole entry): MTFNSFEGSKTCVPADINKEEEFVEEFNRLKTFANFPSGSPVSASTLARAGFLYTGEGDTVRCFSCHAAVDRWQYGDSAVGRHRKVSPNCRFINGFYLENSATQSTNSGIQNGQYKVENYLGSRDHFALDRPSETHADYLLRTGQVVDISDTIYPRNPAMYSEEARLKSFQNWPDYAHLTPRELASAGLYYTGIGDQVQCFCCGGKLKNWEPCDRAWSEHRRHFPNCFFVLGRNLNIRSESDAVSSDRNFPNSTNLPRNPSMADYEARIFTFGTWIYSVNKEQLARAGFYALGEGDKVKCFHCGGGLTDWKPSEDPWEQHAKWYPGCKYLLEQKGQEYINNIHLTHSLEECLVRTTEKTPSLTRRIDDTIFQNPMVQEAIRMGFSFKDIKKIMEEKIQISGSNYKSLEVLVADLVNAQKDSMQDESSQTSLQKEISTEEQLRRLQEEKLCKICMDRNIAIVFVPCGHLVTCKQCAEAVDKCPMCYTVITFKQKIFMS

| Structure (SMILES) | pIC50 [1] | remaining protein rate (%) BCR-ABL (BCR-ABL) | inhibition at 3 µM [1] [%] | remaining protein rate (%) XIAP (XIAP) |
| --- | --- | --- | --- | --- |
| CN[C@@H](C)C(=O)N[C@H](C(=O)N1CCN(C(=O)c2c(C(=O)NCCOCCN3CCN(c4cc(Nc5ncc(C(=O)Nc6c(C)cccc6Cl)s5)nc(C)n4)CC3)c3cc(F)c(F)cc3n2C)CC1)C1CCCCC1 [Example 80, N-(2-Chloro-6-methylphenyl)-2-((6-(4-(2-(2-(2-(4-((S)-2-cyclohexyl-2-((S)-2-(methylamino)propanamide)acetyl)piperazine-1-carbonyl)-5,6-difluoro-1-methyl-1H-indole-3-carboxamido)ethoxy)ethyl)piperazin-1-yl)-2-methylpyrimidin-4-yl)amino)thiazole-5-carboxamide] | 5.52 to 6.52 | C (50%<C≤75%) |  |  |
| CN[C@@H](C)C(=O)N[C@H](C(=O)N1CCN(C(=O)c2c(C(=O)NCCOCCOCCN3CCN(c4cc(Nc5ncc(C(=O)Nc6c(C)cccc6Cl)s5)nc(C)n4)CC3)c3cc(F)c(F)cc3n2C)CC1)C1CCCCC1 [Example 81, N-(2-Chloro-6-methylphenyl)-2-((6-(4-(2-(2-(2-(2-(4-((S)-2-cyclohexyl-2-((S)-2-(methylamino)propanamido)acetyl)piperazine-1-carbonyl)-5,6-difluoro-1-methyl-1H-indole-3-carboxamido)ethoxy)ethoxy)ethyl)piperazin-1-yl)-2-methylpyrimidin-4-yl)amino)thiazole-5-carboxamide trifluoroacetate] | 5.52 to 6.52 | D (D>75%) |  |  |
| CN[C@@H](C)C(=O)N[C@H](C(=O)N1CCN(C(=O)c2cc3cc(F)ccc3n2CC(=O)NCCOCCNC(=O)Cn2c(C(=O)N3CCN(C(=O)[C@@H](NC(=O)[C@H](C)NC)C4CCCCC4)CC3)cc3cc(F)ccc32)CC1)C1CCCCC1 [Example 87, (S)—N—((S)-1-Cyclohexyl-2-(4-(1-(2-((2-(2-(2-(2-(4-((R)-2-cyclohexyl-2-((R)-2-(methylamino)propanamide)acetyl)piperazine-1-carbonyl)-5-fluoro-1H-indol-1-yl)acetamide)ethoxy)ethyl)amino)-2-oxoethyl)-5-fluoro-1H-indole-2-carbonyl)piperazin-1-yl)-2-oxoethyl)-2-(methylamino)propanamide bistrifluoroacetate] |  |  | > 75 | C (50%<C≤75%) |
| CN[C@@H](C)C(=O)N[C@H](C(=O)N1CCN(C(=O)c2c(C(=O)NCCOCCOCCNC(=O)c3c(C(=O)N4CCN(C(=O)[C@@H](NC(=O)[C@H](C)NC)C5CCCCC5)CC4)n(C)c4ccc(F)cc34)c3cc(F)ccc3n2C)CC1)C1CCCCC1 [Example 86, N,N′-((Ethan-1,2-diylbis(oxy))bis(ethan-2,1-diyl))bis(2-(4-((S)-2-cyclohexyl-2-((S)-2-(methylamino)propanamido)acetyl)piperazine-1-carbonyl)-5-fluoro-1-methyl-1H-indole-3-carboxamide) bistrifluoroacetate] | > 6.52 |  | > 75 | C (50%<C≤75%) |
| CN[C@@H](C)C(=O)N[C@H](C(=O)N1CCN(C(=O)c2cc3ccc(OC)cc3n2C)CC1)C1CCC(F)(F)CC1 [Example 42, (S)—N—((S)-1-(4,4-Difluorocyclohexyl)-2-(4-(6-methoxy-1-methyl-1H-indole-2-carbonyl)piperazin-1-yl)-2-oxoethyl)-2-(methylamino)propanamide Hydrochloride] |  |  | > 75 |  |
| CN[C@@H](C)C(=O)N[C@H](C(=O)N1CCN(C(=O)c2ccn3cc(C)nc3c2)CC1)C1CCCCC1 [Example 21, (S)-N-((S)-1-cyclohexyl-2-(4-(2-methylimidazo[1,2-a]pyridine-7-carbonyl)piperazin-1-yl)-2-oxoethyl)-2-(methylamino)propanamide] |  |  | > 25 |  |
| CN[C@@H](C)C(=O)N[C@H](C(=O)N1CCN(C(=O)c2c(C=O)c3cc(F)ccc3n2C)CC1)C1CCCCC1 [Example 35, (S)—N—((S)-1-Cyclohexyl-2-(4-(5-fluoro-3-formyl-1-methyl-1H-indole-2-carbonyl)piperazin-1-yl)-2-oxoethyl)-2-(methylamino)propanamide Hydrochloride] |  |  | > 75 |  |
| CN[C@@H](C)C(=O)N[C@H](C(=O)N1CCN(C(=O)c2cc3cc(F)ccc3n2C)C[C@H]1C)C1CCCCC1 [Example 58, (S)—N—((S)-1-Cyclohexyl-2-((R)-4-(5-fluoro-1-methyl-1H-indole-2-carbonyl)-2-methylpiperazin-1-yl)-2-oxoethyl)-2-(methylamino)propanamide Trifluoroacetate] | 5.52 to 6.52 |  |  |  |
